Source: PMC11350675, “Identifying Cell-Penetrating Peptides for Effectively Delivering Antimicrobial Molecules into Streptococcus suis” (Antibiotics, 2024)
In brackets after ≈: the same amount, converted by molar mass. Where two headings read alike, the source gives them in different places. Non-standard residues stand in square brackets, D forms with d. Residues, ends and D or L forms follow the SMILES beside them. Ahx = NCCCCCC(=O)O; βAla = NCCC(=O)O

Columns and labels:
[1] = system: S. suis serotype 2 strain SC070731; format: cell-based, Streptococcus suis
Method: The broth microdilution method was employed to determine the MIC values, following a previous study and a recently published protocol with a few modifications. In brief, an overnight S. suis serotype 2 strain SC070731 culture was diluted 100-fold in fresh THB and grown to an OD600nm of 0.6. Subsequently, the bacterial suspension was further diluted 2000-fold in fresh Mueller–Hinton broth (MHB) to a final concentration of approximately 1 × 10^5 CFU/mL. Then, 180 µL of the bacterial solution was transferred into a 96-well plate. Immediately, 20 µL of a 10× peptides, PNAs, or CPP-PNA conjugates working solution was added. As a negative control, an equivalent volume of water was added instead. The plate was then incubated at 37 °C with 5% CO2 for 18 h, and the growth was periodically monitored by measuring the OD595nm every hour using a BioTek ELx800 plate reader. The MIC value was determined as the lowest concentration inhibiting visible growth in the wells (OD595nm < 0.1).

[2] = system: S. suis serotype 2 strain SC070731 cells; assay: Cellular uptake of FITC-labeled CPPs by flow cytometry; format: cell-based, Streptococcus suis; details: 10 µM FITC-labeled CPP or FITC molecule, 1 h, 37 °C, PBS; flow cytometry, 50,000 events, 488 nm laser
Method: S. suis serotype 2 strain SC070731 was streaked onto THA plates and incubated at 37 °C with 5% CO2 for 12 h. A bacterial colony was picked and inoculated overnight in 2 mL of THB at 37 °C. The overnight culture was then diluted 100-fold in fresh THB and grown to an OD600nm of 0.6 (approximately 3 × 10^8 CFU/mL). The obtained culture was washed twice with PBS and resuspended in PBS. Further, 900 µL of the bacterial solution was transferred into a 2 mL tube. Immediately, 100 µL of a 10× FITC-labeled CPPs working solution was added to a final concentration of 10 µM. Controls were prepared using an equivalent volume of water or a 10× FITC molecule solution. The reaction tubes were incubated for one hour at 37 °C and 10 rpm rotation in the dark. […] The fluorescence emitted by the 640 nm laser was used to analyze the cell membrane stained with Alexa Fluor 633-WGA. In contrast, the fluorescence emitted by the 488 nm laser was used to analyze the distribution of FITC-labeled CPPs in bacterial cells. […]
As mentioned, the bacterial cells were treated with FITC-labeled CPPs and fixed with 4% paraformaldehyde. […] Bacterial cells in suspension were analyzed at a 200–300 events/s flow rate, and 50,000 events were recorded for analysis. […] The mean fluorescence intensity of FITC was analyzed using FlowJo^TM v10 software (BD Biosciences). […]

[3] = S. suis serotype 2 strain SC070731, broth microdilution in MHB, approx. 1 × 10^5 CFU/mL, 37 °C, 5% CO2, 18 h, lowest concentration inhibiting visible growth (OD595nm < 0.1)

Row | Molecule | MIC [1, 3] | other results
1 | N=C(N)NCCC[C@H](NC(=O)CCCCCNC(=O)[C@H](CCCNC(=N)N)NC(=O)[C@H](CCCNC(=N)N)NC(=O)CCCCCNC(=O)[C@H](CCCNC(=N)N)NC(=O)[C@H](CCCNC(=N)N)NC(=O)CCCCCNC(=O)[C@H](CCCNC(=N)N)NC(=O)[C@H](CCCNC(=N)N)NC(=O)CCCCCNC(=O)[C@@H](N)CCCNC(=N)N)C(=O)NCCCCCC(=O)NCCC(N)=O [(RXR)4XB] (H-R[Ahx]RR[Ahx]RR[Ahx]RR[Ahx]R[Ahx][βAla]-NH2) | – | MIC ([1]; 18 h): 4 µM (≈ 7.61 µg/mL)
2 | O=C1OC2(c3ccc(O)cc3Oc3cc(O)ccc32)c2ccc(N=C=S)cc21 [FITC molecule] | – | cells clustered in quadrant 4 (FITC-positive), share of total cells [2]: 64.80%
3 | N=C(N)NCCC[C@H](NC(=O)CN)C(=O)N[C@@H](CCCCN)C(=O)N[C@@H](CCCCN)C(=O)N[C@@H](CCCNC(=N)N)C(=O)N[C@@H](CCCNC(=N)N)C(=O)N[C@@H](CCC(N)=O)C(=O)N[C@@H](CCCNC(=N)N)C(=O)N[C@@H](CCCNC(=N)N)C(=O)N[C@@H](CCCNC(=N)N)C(=O)N[C@@H](Cc1ccc(O)cc1)C(=O)N[C@@H](CCCCN)C(N)=O [HIV-1 TAT] | >128 µM | –
4 | Free PNA: gyrA-specific antisense peptide nucleic acid, ttgcattatatg, without carrier peptide (TTGCATTATATG; all peptide nucleic acid (PNA); Unconjugated PNA, no carrier peptide) | >32 µM | –
